Measured values published in publication PMC6284057, “Combined Antibacterial Effects of Goat Cathelicidins With Different Mechanisms of Action” (Frontiers in Microbiology, 2018).
Read-outs that look alike come from different tables or passages of the source. No end group written: not given here.

Experiments:
[1] = tested on: A. baumannii (XDR CI 2675); test: microbe, parasite or virus in culture; format: cell-based, Acinetobacter baumannii; conditions: read-out: Minimum inhibitory concentration
Description: (§1) Antimicrobial assay was performed as described previously ([Panteleev et al., 2017b]). Briefly, mid-log phase bacterial test cultures were diluted with the 2× Mueller-Hinton broth (MH, Sigma) supplemented with 1.8% NaCl or without it so that to reach a final cell concentration of 10^6 CFU/ml. 50 μl aliquots of the obtained bacterial suspension were added to 50 μl of the peptide solutions serially diluted with 0.1% water solution of bovine serum albumin (BSA) in 96-well flat-bottom polystyrene microplates (Eppendorf #0030730011). After incubation at 37°C and 900 rpm for 24 h the minimum inhibitory concentrations (MIC) were determined as the lowest peptide concentrations that prevented growth of a test microorganism observed as visible turbidity. The results were expressed as the median values determined on the basis of at least three independent experiments performed in triplicate.

[2] = tested on: K. pneumoniae (XDR CI 1056); test: microbe, parasite or virus in culture; format: cell-based, Klebsiella pneumoniae; conditions: Table S2, XDR clinical isolate; NaCl content of medium not stated; read-out: Minimum inhibitory concentration
Description: as §1

[3] = tested on: P. aeruginosa (XDR CI 1049); test: microbe, parasite or virus in culture; format: cell-based, Pseudomonas aeruginosa; conditions: Table S2, XDR clinical isolate; NaCl content of medium not stated; read-out: Minimum inhibitory concentration
Description: as §1

[4] = tested on: P. mirabilis (XDR CI 3423); test: microbe, parasite or virus in culture; format: cell-based, Proteus mirabilis; conditions: Table S2, XDR clinical isolate; NaCl content of medium not stated; read-out: Minimum inhibitory concentration
Description: as §1

E. cloacae (XDR CI 4172) = format: cell-based, Enterobacter cloacae; conditions: for Fractional inhibitory concentration (FICA, FICB): [X]/MICX; for Fractional inhibitory concentration (FICA, FICB) / MIC of the peptide when used together ([A], [B]): 0.9% NaCl; for MIC of the peptide when used together ([A], [B]): in the mix ChMAP-28 + mini-ChBac7.5Nα, other peptide at sub-inhibitory concentration; for MIC of the individual peptide (MICA, MICB): peptide used individually, medium with physiological NaCl (0.9%), median of 3 experiments in duplicate
Description: as §1
(§2) The peptides were twofold serially diluted with 0.1% BSA in 96-well microplates (Eppendorf #0030730011). Then, the peptide solutions were mixed in the new test plate crosswise in such a way that the resulting checkerboard contained each combination of the cathelicidins in eight doubly increasing concentrations, with wells containing the highest concentration of each peptide at opposite corners ([Berditsch et al., 2015]). Then, the antimicrobial assay was performed as described in the previous section. […] The results were expressed as the median values determined on the basis of three independent experiments performed in duplicate. Estimation of synergistic effects of different cathelicidins was performed by calculating the fractional inhibitory concentration index (FICI) according to the equation: FICI = [À]/MICÀ + [B]/MICB, where MICÀ and MICB are the MICs of the individual substances, while [A] and [B] are the MICs of A and B when used together. A synergistic effect was defined at a FICI ≤ 0.5.

S. aureus 209P = format: cell-based, Staphylococcus aureus; conditions: 24 h
Description: as §1, §2

[5] = tested on: human red blood cells (hRBC); test: Hemolysis (hemoglobin release assay); format: cell-based; conditions: 1.5 h incubation, hRBC of 3 independent donors
Description: (§3) Hemolytic activity of the peptides was tested against the fresh suspension of human red blood cells (hRBC) using the hemoglobin release assay as described previously ([Panteleev et al., 2016]). Three experiments were performed with the hRBC from blood samples obtained from independent donors. The obtained data were represented as average means with standard deviations. The cytotoxicity of the peptides against HEK293T (transformed human embryonic kidney cells) and HEF (human embryonic fibroblasts) cell lines was studied using the colorimetric 3-(4,5-dimethylthiazol-2-yl)-2,5-diphenyltetrazolium bromide (MTT) dye reduction assay according to ([Panteleev and Ovchinnikova, 2017]). Three independent experiments were performed for each peptide. Half maximal inhibitory concentration (IC50) values were estimated as described previously ([Kuzmin et al., 2018]).

HEK293T cells = test: Cytotoxicity (MTT assay); format: cell-based, human; conditions: 24 h incubation, 3 independent experiments, read-out: IC50 against HEK293T cells
Description: as §3

E. coli XDR CI 1057 = conditions: for MIC value at transfer “1”: MH broth with 0.9% NaCl, 37°C, legend covers both strains, values match XDR CI 1057
Description: Resistance induction experiments were performed using the previously described method ([Chernysh et al., 2015]) with some modifications. Briefly, on day 1, the overnight culture of wild-type bacteria was diluted with the 2× MH broth containing 1.8% NaCl so that to reach a final cell concentration of 10^6 CFU/ml. 50 μl aliquots of the obtained bacterial suspension were added to 50 μl of the peptide solutions serially diluted with 0.1% water solution of BSA in 96-well microplates (Eppendorf #0030730011). After incubation at 37°C and 900 rpm for 22 ± 2 h, MICs were determined as described above. For each subsequent daily transfer, 5 μl of the inoculum taken from the first well with a sub-inhibitory drug concentration were diluted with 1 ml of the fresh 2× MH broth supplemented with 1.8% NaCl. […] Control serial passages in the absence of the agent were also performed.

E. faecalis ATCC 29212 = format: cell-based, Enterococcus faecalis; conditions: ATCC 29212, 24 h
Description: Briefly, mid-log phase bacterial test cultures were diluted with the 2× Mueller-Hinton broth (MH, Sigma) supplemented with 1.8% NaCl or without it so that to reach a final cell concentration of 10^6 CFU/ml. 50 μl aliquots of the obtained bacterial suspension were added to 50 μl of the peptide solutions serially diluted with 0.1% water solution of bovine serum albumin (BSA) in 96-well flat-bottom polystyrene microplates (Eppendorf #0030730011). […] The results were expressed as the median values determined on the basis of at least three independent experiments performed in triplicate.

E. coli (CI 214) = format: cell-based, Escherichia coli; conditions: CI 214, 24 h
Procedure, shortened: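 Broth microdilution; final inoculum 10^6 CFU/ml of mid-log cells in 2× MH ± 1.8% NaCl; peptide diluted in 0.1% BSA; 37°C, 900 rpm, 24 h. MIC by visible turbidity; median of ≥3 independent experiments run in triplicate.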

[6] = tested on: mammalian cell lines (HEK293T, HEF); test: Cytotoxicity (MTT assay); format: cell-based, human; conditions: HEK293T and HEF, 24 h incubation
Description: as §3

[7] = 0.9% NaCl, Mueller-Hinton broth, 10^6 CFU/ml, 0.1% BSA, 37°C, 24 h, median of at least 3 experiments
[8] = Without NaCl, Mueller-Hinton broth, 10^6 CFU/ml, 0.1% BSA, 37°C, 24 h, median of at least 3 experiments

Row | Sequence | MIC [1, 7] [µM] | MIC ([1]; Table S2, XDR clinical isolate, NaCl content of medium not stated) [µM] | MIC [1, 8] [µM] | MIC [2] [µM] | MIC [3] [µM] | MIC [4] [µM] | Fractional inhibitory concentration (FICA, FICB) (E. cloacae (XDR CI 4172)) | MIC of the peptide when used together ([A], [B]) (E. cloacae (XDR CI 4172)) [µM] | MIC of the individual peptide (MICA, MICB) (E. cloacae (XDR CI 4172)) [µM] | Fractional inhibitory concentration (FICA, FICB) (S. aureus 209P) | MIC of the individual peptide (MICA, MICB) (S. aureus 209P) [µM] | half maximal hemolysis concentration (HC50) ([5]; hemoglobin release) [µM] | IC50 (HEK293T cells) [µM] | MIC value at transfer “1” (E. coli XDR CI 1057) [µM] | Minimum inhibitory concentration (E. faecalis ATCC 29212) [µM] | MIC (E. coli (CI 214)) [µM] | red blood cells lysed ([5]; at the concentration of 100 μM) [%] | concentrations at which cytotoxic activity was shown [6] [µM] | MIC value after selection (E. coli XDR CI 1057; after eight passages, highest concentration tested 256 μM, MH broth, 0.9% NaCl) [µM]
1 | GRFKRFRKKLKRLWHKVGPFVGPILHY [ChMAP-28] | 0.25 | 0.25 | 0.03 | 0.125 | 0.5 | 0.5 | 0.125 | 0.03 | 0.25 | 0.063 | 0.5 | ~100 | ~3.5 | 0.125 | – | – | – | – | –
2 | RRLRPRRPRLPRPRPRPRPRPR [mini-ChBac7.5Nα] | >32 | – | 2 | – | – | – | 0.125 | 0.5 | 4 | 0.125 | 16 | – | – | 8 | >32 | 4 | 2 | > 25 | > 256
